Patent US8846567B2, “Active compound combinations having insecticidal and acaricidal properties” (priority 2009, dated 2014)
Read-outs that look alike come from different tables or passages of the source.

Key:
Type in all cases: in vivo
Myzus persicae = conditions: 0.8 g/ha, single active compound
Source text: (§1) If the actual insecticidal or acaricidal kill rate exceeds the calculated value, the kill of the combination is superadditive, i.e. a synergistic effect is present. In this case, the actually observed kill rate must exceed the value calculated using the above formula for the expected kill rate (E).
(§2) • Solvents: 78 parts by weight of acetone 1.5 parts by weight of dimethylformamide • Emulsifier: 0.5 part by weight of alkylaryl polyglycol ether
After the desired period of time, the kill in % is determined 100% means that all of the aphids have been killed; 0% means that none of the aphids have been killed. The kill rates determined are entered into Colby's formula (see above).

Spodoptera frugiperda = Spodoptera frugiperda test (sprayed cabbage leaves); conditions: single active compound
Source text: The expected action for a given combination of two active compounds can be calculated according to S. R. Colby, Weeds 15 (1967), 20-22, as follows:
as §1, §2
To produce a suitable preparation of active compound, 1 part by weight of active compound is mixed with the stated amount of solvent and emulsifier, and the concentrate is diluted with emulsifier-containing water to the desired concentration.
Cabbage leaves (Brassica oleracea) are treated by being sprayed with the preparation of active compound of the desired concentration and are populated with larvae of the armyworm (Spodoptera frugiperda) while the leaves are still moist.
After the desired period of time, the kill in % is determined 100% means that all caterpillars have been killed; 0% means that none of the caterpillars have been killed. The kill rates determined are entered into Colby's formula (see above).

Phaedon cochleariae = system: Phaedon cochleariae
Source text: as §1, §2
After the desired period of time, the kill in % is determined 100% means that all beetle larvae have been killed; 0% means that none of the beetle larvae have been killed. The kill rates determined are entered into Colby's formula (see above).

[1] = 4 g/ha, after 6 d, single active compound
[2] = 20 g/ha, single active compound
[3] = 100 g/ha, after 6 d, single active compound
[4] = 20 g/ha, after 6 d, single active compound

Row | Compound | Kill in % after 6 d (Myzus persicae) [%] | Kill in % after 6 d (Spodoptera frugiperda; 4 g/ha) [%] | Kill In % after 2d (Phaedon cochleariae; [2]) [%] | Kill In % after 6d (Phaedon cochleariae; [3]) [%] | Kill In % after 6d (Phaedon cochleariae; [4]) [%] | Kill in % after 6 d (Spodoptera frugiperda; 20 g/ha) [%] | Kill In % after 2d (Phaedon cochleariae; 4 g/ha, single active compound) [%] | further results
1 | CCOP(=O)(NC(C)C)Oc1ccc(SC)c(C)c1 (stereo not drawn) [fenamiphos] | 0 | – | – | – | – | – | – | –
2 | O=C1C=C(N(Cc2ccc(Cl)nc2)CC(F)F)CO1 [compound (I-5), 4-{[(6-chloropyrid-3-yl)methyl](2,2-difluoroethyl)amino}furan-2(5H)-one] | – | 0 | 17 | 67 | – | – | – | Kill In % after 6d (Phaedon cochleariae; [1]): 0%
3 | CCCSP(=O)(OCC)SCCC [ethoprofos, ethoprophos] | – | – | – | – | – | – | – | Kill In % after 6d (Phaedon cochleariae; in vivo): 0%
4 | COP(=O)(NC(C)=O)SC (stereo not drawn) [acephate] | 0 | – | – | 0 | 0 | – | – | –
5 | CS/C(C)=N/OC(=O)N(C)SN(C)C(=O)O/N=C(\C)SC [thiodicarb] | 0 | 50 | – | 0 | 0 | 83 | – | Kill in % after 1d (Myzus persicae): 0%
6 | O=C1C=C(N(CCF)Cc2ccc(Cl)nc2)CO1 [compound (I-4), 4-{[(6-chloropyrid-3-yl)methyl](2-fluoroethyl)amino}furan-2(5H)-one] | – | – | – | 50 | – | 0 | 0 | Kill in % after 1d (Myzus persicae): 20%; Kill In % after 6d (Phaedon cochleariae; [1]): 0%; Kill In % after 2d (Phaedon cochleariae; 100 g/ha, single active compound): 50%
7 | COP(N)(=O)SC (stereo not drawn) [methamidophos] | 0 | – | – | – | – | 67 | – | –
8 | methiocarb | 0 | – | – | – | – | – | 17 | –
9 | CN(Cc1cnc(Cl)c(F)c1)C1=CC(=O)OC1 [compound (I-6), 4-{[(6-chloro-5-fluoropyrid-3-yl)methyl](methyl)amino}furan-2(5H)-one] | 80 | 0 | 0 | – | 17 | 0 | – | –
10 | CCOP(=S)(OCC)Oc1nc(Cl)c(Cl)cc1Cl [chlorpyriphos, chlorpyrifos] | – | 67 | 50 | – | – | – | 0 | –
